Where no end group is shown, it is not given here.
Key:
[1] = system: C57/BL6 mice; test: Immune response on repeated administration (ELISA, Greiss test on serum); assay type: in vivo; details: first week, compared with PEI only
[2] = system: ZR-75-1 cells; test: Transfection of ZR-75-1 cells, GFP expression by flow cytometry; assay type: cell-based
Experimental: In order to test the RALA in vitro, small scale transfections were performed carried out. 5×10^4 cells were seeded onto each well of a 96 well plate and the cells incubated under with complete medium standard conditions for 48 hours. The medium was subsequently removed from the plates and 100 μl of transfection medium (Optimem Invitrogen, UK) was added to each well. Cells were incubated for 2 hours at 37° C. and 5% CO2 standard conditions. In the meanwhile complexes were made up using 1 μg of plasmid DNA with the RALA vector and added to the cells when the two hours had passed. 100 μl of the each N:P ratio were added to each well of the cells. Cells were then incubated for a further 4 hours under standard conditions and the medium with RPMI-1640 supplemented with +10% FCS. (FIG. 4, 31 (+Chloroquine), 32 (+Bafilomycin), 33 (+KALA NPs), 34 (+Lipofectamine), 35).
ZR-75-1 & PC-3 cells that were transfected with RALA/pEGFP-N1 complexes were trypsinised and washed twice with 2% formaldehyde in phosphate buffered saline. The expression of green fluorescent protein was measured by flow cytometry using FACS calibur system (BD Bioscience, UK). The data was analysed using the Flo-Jo software program and fluorescent intensity is reported at 4% gating. (FIG. 7b, 11, 31, 32, 33, 34, 35, 57 (+RAT/pEGFP-N1)).

[3] = Nanoparticle size and charge analysis (DLS, Laser Doppler Velocimetry, Malvern Zetasizer); assay type: physicochemical
Experimental: In order to obtain particle size and charge distributions the mean hydrodynamic particle size measurements RALA complexes were performed using Dynamic Light Scattering (DLS). Dynamic Light Scattering is based upon the principle that when particles are illuminated with a laser, due to Brownian motion there will be scattering of the light. The intensity of the scattered light fluctuates as a result of this Brownian motion caused by bombardment of the particles by solvent molecules. A correlation curve reflecting the decay rate is generated based on fluctuations of the scattered light where a slower correlation decay rate represents a slower moving particle. Based on the Stokes-Einstein equation larger particles move more slowly and, thus, the correlation function can be used to determine the size distribution of the particles. dynamic light scattering (DLS) was used.
Surface charge measurements of the RALA nanoparticles were determined by Laser Doppler Velocimetry. The zeta potential of the particles was measured using disposable foltable zeta cuvettes. […]
The nanoparticles were made up at an appropriate range of N:P ratios with at least using 2 μg of DNA in each sample. Nanoparticles were analysed using either and analysis was completed on either the Zetasizer-HS3000 (Malvern Instruments) or the Zetasizer-Nano instrument with DTS software (Malvern Instruments, UK). […]

Sequence	initial TNFα response [1]	ability to transfect cells [2]	ability to condense DNA into nanoparticles [3]
WEARLARALARALARHLARALARALRACEA [RALA]	significantly lower initial response of TNFα than the PEI only treated animals		
WEARLARALARALARHLRACEA (22mer protein sequence (Table 2)) [Peptide 22mer, comparative peptide]		unable to condense DNA into nanoparticles and transfect cells	unable to condense DNA into nanoparticles

— patent US9744244B2, “Amphipathic peptide” (The Queen's University of Belfast, priority 2012, dated 2017)
